Reference: ChEMBL document CHEMBL1139998, “Design, synthesis, and binding studies of bidentate Zn-chelating peptidic inhibitors of glyoxalase-I” (Bioorg Med Chem Lett, 2007)

Target: T1, Glyoxalase I (Saccharomyces cerevisiae S288c, UniProt P50107)
T1 sequence (P50107 whole entry): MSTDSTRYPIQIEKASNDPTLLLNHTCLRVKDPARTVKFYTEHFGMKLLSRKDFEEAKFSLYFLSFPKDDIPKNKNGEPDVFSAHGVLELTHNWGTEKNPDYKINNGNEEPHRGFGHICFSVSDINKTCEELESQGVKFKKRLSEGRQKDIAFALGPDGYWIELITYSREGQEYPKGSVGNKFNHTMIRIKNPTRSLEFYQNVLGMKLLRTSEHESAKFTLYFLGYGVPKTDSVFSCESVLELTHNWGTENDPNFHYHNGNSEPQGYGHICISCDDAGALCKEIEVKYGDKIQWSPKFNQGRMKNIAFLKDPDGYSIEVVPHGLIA
Assay: Inhibition of yeast glyoxalase 1

Ki [µM] | SMILES
66.9 | N[C@@H](CCC(=O)N[C@@H](CCC(=O)CC(=O)OCc1ccc(Br)cc1)C(=O)NCC(=O)O)C(=O)O
112 | COC(=O)CC(=O)CC[C@H](NC(=O)CC[C@H](N)C(=O)O)C(=O)NCC(=O)O
